Here are results for two molecules from ChEMBL document CHEMBL1154572, “Stephanotic acid, a novel cyclic pentapeptide from the stem of Stephanotis floribunda” (2000).

The subject of one experiment is KB. Description: Cytotoxicity against human KB cells. The format is functional. The note with it: read-out: ED50.
The test system of another experiment is L1210. Description: Cytotoxicity against mouse L1210 cells. The class given is functional. The note with it: L1210, read-out: ED50.

For `CC[C@H](C)[C@@H]1NC(=O)[C@@H](NC(=O)[C@@H]2CCC(=O)N2)[C@@H](C(C)C)c2ccc3c(c[nH]c3c2)C[C@@H](C(=O)OC)NC(=O)[C@H](C(C)C)NC1=O` [METHYL STEPHANATE], the EC50 in the experiment on KB and with L1210 was over 50 µg/mL each time.
As to `CC[C@H](C)[C@@H]1NC(=O)[C@@H](NC(=O)[C@@H]2CCC(=O)N2)[C@@H](C(C)C)c2ccc3c(c[nH]c3c2)C[C@@H](C(=O)O)NC(=O)[C@H](C(C)C)NC1=O` [STEPHANOTIC ACID], the EC50 in the experiment with KB and in the experiment on L1210 was over 50 µg/mL each time.
